Source: US8216782B2, “PTTG1 as a biomarker for cancer treatment” (Cedars-Sinai Medical Center, priority 2008, dated 2012)
“Also recorded” adds a separate entry of the source. Blank lines part the entries; values can stand above or below the molecule they belong to.

Experiments:
HCT116 PTTG1−/− cells [1] = experiment: β-galactosidase staining (senescence); format: cell-based; conditions: 0.313 uM, 48 hrs
From the text: (§1) Cells were fixed and stained with β-galactosidase staining kit (Sigma).

HCT116 WT cells [2] = experiment: β-galactosidase staining (senescence); format: cell-based; conditions: 0.313 uM, 48 hrs
From the text: as §1

p21 = p21 expression after treatment; format: cell-based; conditions: WT and PTTG1−/− cells
From the text: FIG. 10 depicts P21 level is higher in PTTG1^−/− cells than WT. P21 induces senescence.

WT HCT116 tumors = experiment: Subcutaneous tumor implant in nude mice; format: in vivo; conditions: 50 mg/kg, 17 days
Protocol: Tumor volume was measured twice a week.

HCT116 cells = experiment: Apoptosis by Tunel assay and activated caspase 3 levels; format: cell-based
PTTG1−/− HCT116 tumors = experiment: Subcutaneous tumor implant in nude mice; conditions: 50 mg/kg, 17 days
Protocol: Tumor volume was measured twice a week. Mice were sacrificed at day 18 and tumors were collected and weighted.

Aurora Kinase A [3] = conditions: Gadea and Ruderman, 2005; cited from earlier work
HCT116 PTTG1−/− cells [4] = experiment: WST-1 cell proliferation assay; format: cell-based; conditions: for sensitivity of PTTG1−/− cell growth versus WT (WST-1): PTTG1−/− vs WT HCT116 cells
Protocol: (§2) FIG. 4 depicts that PTTG1 regulates cell response to Aurora Kinase inhibition, in accordance with an embodiment of the present invention. (A) PTTG1^−/− cell proliferation was attenuated in response to Aurora Kinase A siRNA (mean±S.D., n=3. P<0.05 vs WT). Cells were seeded into 96-well plates, cultured overnight, and then transfected with siRNAs (100 nM). After 72 hours, premixed WST-1 cell proliferation reagent (10 ul) was added to each well. Cells were incubated for a further four hours and shaken thoroughly for one minute before measurement. […] Cells were seeded into 96-well plates, cultured overnight, and then treated with drug as indicated for 48 hours. Viable cells were measured using Premixed WST-1 cell proliferation reagent. (C) Anchorage-dependent colony formation assay was performed as described herein. […] (mean±S.D., n=3. P<0.05 vs WT) (D) Western blot showing that over-expressed PTTG1 rescued PTTG1^−/− sensitivity to Aurora Kinase inhibitor III (12.5 uM) (mean±S.D., n=3. P>0.05 vs WT); PTTG1 knock-down enhanced WT cell sensitivity to Aurora Kinase inhibitor III (12.5 uM) (mean±S.D., n=3. P>0.05 vs PTTG1^−/−). PTTG1^−/−=PTTG1-null or KO cells.
(§3) Cell proliferation was evaluated using WST-1 cell proliferation reagent (obtained from Clontech Laboratories, Inc.; Mountain View, Calif.). Briefly, 90 μl cells were seeded into 96-well plates and cultured overnight, treated with drugs for 48 hours, and 10 μl premixed WST-1 cell proliferation reagent added. Cells were incubated for a further four hours, shaken and absorbance measured at 450 nm using a Victor 3 multiwell plate reader (obtained from PerkinElmer, Inc.; Waltham, Mass.). Cell viability rate was calculated for each well as A450 treated cells/A450 control cells×100% (A450: OD value at 450 nm).

HCT116 WT cells [5] = experiment: WST-1 cell proliferation assay; format: cell-based; conditions: Homo sapiens, HCT-116, 48 h, read-out: cells remaining viable
Protocol: as §2, §3

HCT116 PTTG1−/− cells [6] = experiment: Anchorage-dependent colony formation assay; format: cell-based; conditions: PTTG1−/− colonies, 0.16 μM doxorubicin
Protocol: (§4) Briefly, 20,000 cells were plated in a six-well culture dish, allowed to attach overnight and treated with depicted drug concentrations. Cells were cultured in standard culture medium containing indicated treatments for twelve days and medium re-freshened every three days. Colonies were stained with 0.5% crystal violet in methanol/acetic acid (3:1) and those composed of >50 cells were counted.

HCT116 WT cells [7] = experiment: Anchorage-dependent colony formation assay; format: cell-based; conditions: 0.16 μM doxorubicin
Protocol: as §4

PTTG1 = experiment: Western blot of PTTG1 phosphorylation after DNA damage; format: cell-based; conditions: 24 hours, 5 μM doxorubicin
From the text: (§5) FIG. 6 depicts PTTG1 and DNA damage pathway, in accordance with an embodiment of the present invention. […] (B) Aurora Kinase A activity was less inhibited after DNA damage treatment in PTTG1^−/− cells. Lane C1, positive control with Aurora Kinase A; lane C2, negative control without Aurora Kinase A; lane WT, Aurora Kinase A co-immunoprecipitated from HCT116 WT cells after doxorubicin treatment; Lane −/−, Aurora Kinase A immunoprecipitated from HCT116 PTTG1^−/− cells after doxorubicin treatment. Aurora Kinase A activity is higher in PTTG1^−/− than WT HCT116 cells. (C) C, PTTG1 WT plasmid; M3, PTTG1 S165A mutation; M9, PTTG1 S181A mutation. Plasmids were transfected into HCT116 PTTG1^−/− cells and treated with proteosome inhibitor LLnL to enrich phosphorylated PTTG1. Arrow depicts the major band. […] (D) WT, PTTG1 WT plasmid; M9, PTTG1 S181A mutation were transfected into HCT116 PTTG1^−/− and co-immunoprecipitation performed. […] (E) Proposed signaling pathway for PTTG1 action in G2 DNA damage checkpoint.

Aurora Kinase A [8] = experiment: Kinase activity of Aurora Kinase A immunoprecipitated from treated HCT116 cells; format: cell-based; conditions: PTTG1−/− vs WT HCT116 cells
From the text: as §5
Aurora Kinase A activity is inhibited by DNA damage (Krystyniak et al., 2006). The inventors therefore tested Aurora Kinase A activity in HCT116 WT and PTTG1^−/− cells after treatment with doxorubicin. […] Phosphorylated PTTG1 may therefore act with Aurora Kinase A and play a role in the DNA damage-induced G2 checkpoint. […]

Aurora Kinase A [9] = experiment: Western blot of siRNA knock down; format: cell-based; conditions: WT and PTTG1−/− cells
Protocol: Protein extracts were resolved by Nupage 4-12% Bis-Tris Gel (obtained from Invitrogen). Samples were electro-blotted onto PVDF membrane (obtained from Invitrogen), and membranes blocked and incubated with primary antibody. Donkey anti-rabbit- or anti-mouse (obtained from GE Healthcare; NJ) antibodies were conjugated to horseradish […] to reveal immunocomplexes by enhanced chemiluminescence (obtained from Thermo Scientific Pierce Protein Research Products).
Aurora Kinase A siRNA (AM51331, Sense: Described herein as SEQ. ID. NO.: 5; Antisense: Described herein as SEQ. ID. NO.: 6) and PTTG1 siRNA (16706, Sense: Described herein as SEQ. ID. NO.: 7; Antisense: Described herein as SEQ. ID. NO.: 8) were purchased from Ambion, Inc. (TX). Transfections were carried out with lipofectamine 2000 according to protocol.

ribosomal protein S10 = biological target: T1, ribosomal protein S10 (Homo sapiens, UniProt P46783); experiment: Protein microarray screening (Protoarray); format: binding; conditions: biotinylated PTTG1 probe
T1 construct: purchased Invitrogen Protoarray nc-v3
Protocol: (§6) FIG. 1 depicts that PTTG1 interacts with Aurora Kinase A, in accordance with an embodiment of the present invention. (A) PTTG1 was biotin-labeled and incubated with the protein microarray. Attached biotinylated PTTG1 was probed with Streptavidin-Alexa Fluor 647 conjugate. […] (B) Aurora Kinase A antibody was used to co-immunoprecipitate PTTG1, and PTTG1 antibody used to co-immunoprecipitate Aurora Kinase A respectively.
(§7) The human Protoarray nc3.0 study was performed as described by the manufacturer (obtained from Invitrogen Corporation; Carlsbad, Calif.). PTTG1 protein was biotinylated using biotin-XX sulfosuccinimidyl ester, purified by gel filtration, and assessed by Western blot. Appropriate protein aliquots were used to probe a protein microarray (Protoarray nc-v3; obtained from Invitrogen) and attached biotinylate PTTG1 was probed with Streptavidin-Alexa Fluor 647 conjugate. Arrays were scanned by GenePix 4000B (obtained from Molecular Devices Corporation; Sunnyvale, Calif.), and images analyzed using ProtoArray Prospector (Invitrogen).

Aurora Kinase A [10] = biological target: T2, Aurora Kinase A (Homo sapiens, UniProt O14965); experiment: In vitro kinase activity assay (histone H3 Ser10 phosphorylation); format: biochemical; parameters: purchased Cell Signaling; conditions: PTTG1 0.5, 1, 2 μg
T2 sequence (O14965 1-403): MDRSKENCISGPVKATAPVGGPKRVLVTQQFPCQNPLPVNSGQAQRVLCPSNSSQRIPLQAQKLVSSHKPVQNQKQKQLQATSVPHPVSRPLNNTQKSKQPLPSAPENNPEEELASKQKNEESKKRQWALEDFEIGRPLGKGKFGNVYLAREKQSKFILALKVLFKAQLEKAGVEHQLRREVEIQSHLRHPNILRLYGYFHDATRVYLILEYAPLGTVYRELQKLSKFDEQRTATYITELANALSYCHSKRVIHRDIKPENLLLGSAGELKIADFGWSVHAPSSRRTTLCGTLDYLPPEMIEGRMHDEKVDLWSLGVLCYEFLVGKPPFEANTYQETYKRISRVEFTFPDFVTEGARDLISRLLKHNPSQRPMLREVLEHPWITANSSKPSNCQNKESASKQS
From the text: FIG. 3 depicts that PTTG1 attenuates Aurora Kinase A function, in accordance with an embodiment of the present invention. (A) Over-expressed PTTG1 caused abnormal spindle formation as evidenced by unevenly distributed PTTG1-GFP and Aurora Kinase A (white arrows). (B) Western blot showing that over-expressed PTTG1 suppressed Aurora Kinase A T288 auto-phosphorylation and histone H3 Ser10 phosphorylation in HCT116 cells compared to controls. (C) Over-expressed PTTG1 repressed histone H3 Seri 0 phosphorylation as shown by immunofluorescence (white arrows). Scale bar=5 μm. (D) Degradation of mitotic proteins. HCT116 cells were synchronized with 400 ng/ml nocodazole for twelve hours and mitotic cells collected by shake-off, washed and cultured in fresh medium at 37° C. to allow progression of G2/M, and cells harvested at the indicated time points. […] (E) In vitro kinase assay. Aurora Kinase A, histone H3 and increasing PTTG1 or GST-His levels (0.5, 1, 2 μg) were brought to a 30 μl volume reaction system as described herein. After incubations at 37° C. for 20 minutes, reactions were halted and analyzed by Western blotting using histone H3 ser10 antibody. […]
Assays were performed using a modified Aurora kinase A assay kit obtained from Cell Signaling. […] Proteins were separated by standard SDS-PAGE and analyzed by Western blotting.

Aurora Kinase A [11] = biological target: T2, Aurora Kinase A; experiment: Protein microarray screening (Protoarray); format: binding; parameters: purchased Invitrogen Protoarray nc-v3; conditions: biotinylated PTTG1 probe
Protocol: as §6, §7

Molecule: O=C(CCCCCCC(=O)Nc1ccccc1)NO [SAHA, suberoylanilide hydroxamic acid]
senescent cells (β-galactosidase staining) (HCT116 PTTG1−/− cells [1]): 43%
senescent cells (β-galactosidase staining) (HCT116 WT cells [2]): 7%
p21 expression (p21): enhanced p21 expression
tumor growth (WT HCT116 tumors): did not show any difference between control and treated group; also recorded: had no effect
apoptosis (HCT116 cells): did not cause apoptosis
tumor growth (PTTG1−/− HCT116 tumors): significantly inhibited

Molecule: COc1cc2c(Nc3ccc(NC(=O)c4ccccc4)cc3)ncnc2cc1OCCCN1CCOCC1 [ZM 447439]
effect on chromosome condensation and spindle (Aurora Kinase A [3]): retards progression of chromosome condensation, leading to a disorganized spindle

Molecule: COc1cccc2c1C(=O)c1c(O)c3c(c(O)c1C2=O)C[C@@](O)(C(=O)CO)C[C@@H]3O[C@H]1C[C@H](N)[C@H](O)[C@H](C)O1 [doxorubicin]
viability at 1.25 µM (HCT116 PTTG1−/− cells [4]; Homo sapiens, HCT-116, 48 h, read-out: cells remaining viable): 27%
sensitivity of PTTG1−/− cell growth versus WT (WST-1) (HCT116 PTTG1−/− cells [4]): more sensitive
viability at 1.25 µM (HCT116 WT cells [5]): 55%
colonies survived (HCT116 PTTG1−/− cells [6]): 36%
colonies survived (HCT116 WT cells [7]): 74%
phosphorylated PTTG1 (PTTG1): Increased phosphorylated PTTG1
Aurora Kinase A activity after doxorubicin treatment (Aurora Kinase A [8]): less suppressed in PTTG1^−/− than WT cells

Molecule: Aurora Kinase A siRNA: siRNA AM51331, SEQ. ID. NO.: 5 and 6, purchased from Ambion (chain 1 GGCAACCAGUGUACCUCAU; chain 2 AUGAGGUACACUGGUUGCC; chemistry not given here; listed as Homo sapiens)
effect on the WT versus PTTG1−/− difference in response to doxorubicin (HCT116 PTTG1−/− cells [4]; 3 μM inhibitor pre-incubation or siRNA, 0.63 μM doxorubicin): abolished the differences
sensitivity of PTTG1−/− cell growth versus WT (WST-1) (HCT116 PTTG1−/− cells [4]): attenuated
Aurora Kinase A expression (Aurora Kinase A [9]): efficiently knocked down Aurora Kinase A expression

Z-score of interaction (ribosomal protein S10): 3.34
Aurora Kinase A phosphorylation of histone H3 (Aurora Kinase A [10]): dose-dependently inhibits
Z-score of interaction (Aurora Kinase A [11]): 4.90
B1: PTTG1: pituitary tumor transforming gene protein (securin); His-PTTG1 expressed in insect cells, biotinylated for the array (protein, listed as Homo sapiens)
chain: MATLIYVDKENGEPGTRVVAKDGLKLGSGPSIKALDGRSQVSTPRFGKTFDAPPALPKATRKALGTVNRATEKSVKTKGPLKQKQPSFSAKKMTEKTVKAKSSVPASDDAYPEIEKFFPFNPLDFESFDLPEEHQIAHLPLSGVPLMILDEERELEKLFQLGPPSPVKMPSPPWESNLLQSPSSILSTLDVELPPVCCDIDI
modifications: His tag, biotinylated
notes: pituitary tumor transforming gene protein (securin); His-PTTG1 expressed in insect cells, biotinylated for the array
